In patent publication US20090018134A1, “Compounds - 945” (AstraZeneca AB, priority 2007, published 2009) one finds IC50 data, which are given here for 31 compounds.

This test concerns the target T1, mTOR (Homo sapiens, UniProt P42345).
T1 construct: FLAG; made in house
The experiment in a line: In Vitro mTOR Kinase Assay (Echo), Test (a)(ii). Format: biochemical. The gist of the method:
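Inhibition of truncated mTOR (1362-2549, FLAG-tagged, purified from stably transfected HEK293 cells) is measured as reduced AlphaScreen signal from a phospho-T389-recognising antibody bound to the biotinylated peptide product. Kinase incubation lasts 2 hours at room temperature. Potency is given as IC50.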

The mark [1] stands for this setting: read-out: mTOR Kinase Assay (Echo).
The mark [2] stands for this setting: table of enzyme assay Test (a)(ii), read-out: Test (a)(ii) IC50.

Structures are written as SMILES. Read-outs that look alike come from different tables or passages of the source.

T1 sequence (P42345 1362-2549): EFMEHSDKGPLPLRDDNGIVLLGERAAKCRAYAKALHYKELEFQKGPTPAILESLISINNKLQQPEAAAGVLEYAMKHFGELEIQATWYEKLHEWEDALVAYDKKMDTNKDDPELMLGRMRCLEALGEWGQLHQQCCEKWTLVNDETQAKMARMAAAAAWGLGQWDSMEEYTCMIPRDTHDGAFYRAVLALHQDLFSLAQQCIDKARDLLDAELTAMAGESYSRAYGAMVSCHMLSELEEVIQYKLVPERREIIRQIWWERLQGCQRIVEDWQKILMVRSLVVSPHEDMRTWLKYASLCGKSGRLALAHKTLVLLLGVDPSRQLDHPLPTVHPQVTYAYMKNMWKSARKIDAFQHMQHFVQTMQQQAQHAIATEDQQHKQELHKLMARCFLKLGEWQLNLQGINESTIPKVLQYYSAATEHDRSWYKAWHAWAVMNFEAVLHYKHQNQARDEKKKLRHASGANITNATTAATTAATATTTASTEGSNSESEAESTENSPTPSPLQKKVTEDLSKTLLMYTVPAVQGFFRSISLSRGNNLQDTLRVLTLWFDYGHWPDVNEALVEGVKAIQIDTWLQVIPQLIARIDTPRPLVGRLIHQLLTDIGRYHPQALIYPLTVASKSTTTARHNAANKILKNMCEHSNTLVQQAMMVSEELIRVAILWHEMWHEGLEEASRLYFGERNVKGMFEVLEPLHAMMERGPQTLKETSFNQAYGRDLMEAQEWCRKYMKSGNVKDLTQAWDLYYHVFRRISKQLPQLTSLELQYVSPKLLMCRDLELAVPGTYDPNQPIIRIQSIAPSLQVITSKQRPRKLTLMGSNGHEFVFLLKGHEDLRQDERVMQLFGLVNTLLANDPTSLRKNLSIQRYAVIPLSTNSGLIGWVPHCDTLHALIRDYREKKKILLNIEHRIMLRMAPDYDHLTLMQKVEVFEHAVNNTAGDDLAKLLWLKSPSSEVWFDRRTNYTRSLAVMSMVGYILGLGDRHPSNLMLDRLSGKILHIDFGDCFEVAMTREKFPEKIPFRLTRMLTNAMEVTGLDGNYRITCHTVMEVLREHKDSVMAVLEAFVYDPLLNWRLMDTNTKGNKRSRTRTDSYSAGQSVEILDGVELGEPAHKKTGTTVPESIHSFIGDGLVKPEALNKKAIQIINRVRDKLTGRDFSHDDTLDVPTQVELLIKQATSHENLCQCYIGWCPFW

Take `CS(=O)(=O)C1(c2cc(N3CCOCC3)nc(-c3ccc(NC(=O)NC4CC4)cc3)n2)CCCC1` [Example 12j, 3-cyclopropyl-1-[4-[4-(1-methylsulfonylcyclopentyl)-6-morpholin-4-ylpyrimidin-2-yl]phenyl]urea]: under setting [1], the IC50 stood at 1.67 nM. For the compound `CNC(=O)Nc1ccc(-c2nc(N3CCOCC3)cc(C3(S(C)(=O)=O)CCCC3)n2)cc1` [Example 12k, 3-methyl-1-[4-[4-(1-methylsulfonylcyclopentyl)-6-morpholin-4-ylpyrimidin-2-yl]phenyl]urea], the IC50 under setting [1] was determined as 4.3 nM.

Take `CS(=O)(=O)C1(c2cc(N3CCOCC3)nc(-c3ccc(NC(=O)NCCO)cc3)n2)CCCC1` [Example 12l, 3-(2-hydroxyethyl)-1-[4-[4-(1-methylsulfonylcyclopentyl)-6-morpholin-4-ylpyrimidin-2-yl]phenyl]urea]: under setting [1], the IC50 was found to be 1.38 nM. `CC(C)(CO)NC(=O)Nc1ccc(-c2nc(N3CCOCC3)cc(C3(S(C)(=O)=O)CCCC3)n2)cc1` [Example 12m, 3-(1-hydroxy-2-methylpropan-2-yl)-1-[4-[4-(1-methylsulfonylcyclopentyl)-6-morpholin-4-ylpyrimidin-2-yl]phenyl]urea]: under setting [1], the IC50 was determined as 10.1 nM. In the case of `CN(C)CCNC(=O)Nc1ccc(-c2nc(N3CCOCC3)cc(C3(S(C)(=O)=O)CCCC3)n2)cc1` [Example 12n, 3-(2-dimethylaminoethyl)-1-[4-[4-(1-methylsulfonylcyclopentyl)-6-morpholin-4-ylpyrimidin-2-yl]phenyl]urea], the IC50 under setting [1] amounted to 238 nM.

For the compound `CS(=O)(=O)C1(c2cc(N3CCOCC3)nc(-c3ccc(NC(=O)NCCCO)cc3)n2)CCCC1` [Example 12o, 3-(3-hydroxypropyl)-1-[4-[4-(1-methylsulfonylcyclopentyl)-6-morpholin-4-ylpyrimidin-2-yl]phenyl]urea], the IC50 under setting [1] was determined as 5.09 nM. Take `CS(=O)(=O)C1(c2cc(N3CCOCC3)nc(-c3ccc(NC(=O)NC4CC4)cc3)n2)CCC1` [Example 12p, 3-cyclopropyl-1-[4-[4-(1-methylsulfonylcyclobutyl)-6-morpholin-4-ylpyrimidin-2-yl]phenyl]urea]: the IC50 under setting [1] amounted to 1.4 nM. On the same count and under the same terms, the figure for `CNC(=O)Nc1ccc(-c2nc(N3CCOCC3)cc(C3(S(C)(=O)=O)CCC3)n2)cc1` [Example 12q, 3-methyl-1-[4-[4-(1-methylsulfonylcyclobutyl)-6-morpholin-4-ylpyrimidin-2-yl]phenyl]urea] is 1.62 nM; for `CS(=O)(=O)C1(c2cc(N3CCOCC3)nc(-c3ccc(NC(=O)NCCO)cc3)n2)CCC1` [Example 12r, 3-(2-hydroxyethyl)-1-[4-[4-(1-methylsulfonylcyclobutyl)-6-morpholin-4-ylpyrimidin-2-yl]phenyl]urea] it is 0.991 nM. In the case of `CN(C)CCNC(=O)Nc1ccc(-c2nc(N3CCOCC3)cc(C3(S(C)(=O)=O)CCC3)n2)cc1` [Example 12s, 3-(2-dimethylaminoethyl)-1-[4-[4-(1-methylsulfonylcyclobutyl)-6-morpholin-4-ylpyrimidin-2-yl]phenyl]urea], the IC50 by setting is: under setting [1], 134 nM; under setting [2], 117 nM.

`O=C(Nc1ccc(-c2nc(N3CCOCC3)cc(C3(S(=O)(=O)C4CC4)CC3)n2)cc1)NC1CC1` [Example 13, 3-Cyclopropyl-1-[4-[4-(1-cyclopropylsulfonylcyclopropyl)-6-morpholin-4-ylpyrimidin-2-yl]phenyl]urea]: under setting [2], the IC50 worked out at 3.57 nM. On to `CNC(=O)Nc1ccc(-c2nc(N3CCOCC3)cc(C3(S(=O)(=O)C4CC4)CC3)n2)cc1` [Example 13a, 1-[4-[4-(1-cyclopropylsulfonylcyclopropyl)-6-morpholin-4-ylpyrimidin-2-yl]phenyl]-3-methylurea], for which, under setting [2], the IC50 is 3.41 nM. For the compound `CCNC(=O)Nc1ccc(-c2nc(N3CCOCC3)cc(C3(S(=O)(=O)C4CC4)CC3)n2)cc1` [Example 13b, 1-[4-[4-(1-cyclopropylsulfonylcyclopropyl)-6-morpholin-4-ylpyrimidin-2-yl]phenyl]-3-ethylurea], under setting [2], the IC50 was found to be 3.7 nM. On to `O=C(NCCO)Nc1ccc(-c2nc(N3CCOCC3)cc(C3(S(=O)(=O)C4CC4)CC3)n2)cc1` [Example 13d, 1-[4-[4-(1-cyclopropylsulfonylcyclopropyl)-6-morpholin-4-ylpyrimidin-2-yl]phenyl]-3-(2-hydroxyethyl)urea], for which the IC50 under setting [2] is 3.51 nM. With `CC(C)(CO)NC(=O)Nc1ccc(-c2nc(N3CCOCC3)cc(C3(S(=O)(=O)C4CC4)CC3)n2)cc1` [Example 13e, 1-[4-[4-(1-cyclopropylsulfonylcyclopropyl)-6-morpholin-4-ylpyrimidin-2-yl]phenyl]-3-(1-hydroxy-2-methylpropan-2-yl)urea], the IC50 under setting [2] was 30.1 nM. For the compound `CN(C)CCNC(=O)Nc1ccc(-c2nc(N3CCOCC3)cc(C3(S(=O)(=O)C4CC4)CC3)n2)cc1` [Example 13f, 1-[4-[4-(1-cyclopropylsulfonylcyclopropyl)-6-morpholin-4-ylpyrimidin-2-yl]phenyl]-3-(2-dimethylaminoethyl)urea], the IC50 under setting [2] turned out to be 386 nM. On the same count and under the same terms, for `CCCNC(=O)Nc1ccc(-c2nc(N3CCOCC3)cc(C3(S(=O)(=O)C4CC4)CC3)n2)cc1` [Example 13g, 1-[4-[4-(1-cyclopropylsulfonylcyclopropyl)-6-morpholin-4-ylpyrimidin-2-yl]phenyl]-3-propylurea] the value was 4.79 nM; for `O=C(NCCCO)Nc1ccc(-c2nc(N3CCOCC3)cc(C3(S(=O)(=O)C4CC4)CC3)n2)cc1` [Example 13h, 1-[4-[4-(1-cyclopropylsulfonylcyclopropyl)-6-morpholin-4-ylpyrimidin-2-yl]phenyl]-3-(3-hydroxypropyl)urea], 10.6 nM.

Take `Cn1cc(NC(=O)Nc2ccc(-c3nc(N4CCOCC4)cc(C4(S(=O)(=O)C5CC5)CC4)n3)cc2)cn1` [Example 13i, 1-[4-[4-(1-cyclopropylsulfonylcyclopropyl)-6-morpholin-4-ylpyrimidin-2-yl]phenyl]-3-(1-methylpyrazol-4-yl)urea]: the IC50 under setting [2] came to 2.75 nM. The same measure, in the same setting: for `O=C(Nc1ccc(-c2nc(N3CCOCC3)cc(C3(S(=O)(=O)C4CC4)CCCC3)n2)cc1)NC1CC1` [Example 13j, 3-cyclopropyl-1-[4-[4-(1-cyclopropylsulfonylcyclopentyl)-6-morpholin-4-ylpyrimidin-2-yl]phenyl]urea] the value was 17.8 nM; for `CNC(=O)Nc1ccc(-c2nc(N3CCOCC3)cc(C3(S(=O)(=O)C4CC4)CCCC3)n2)cc1` [Example 13k, 1-[4-[4-(1-cyclopropylsulfonylcyclopentyl)-6-morpholin-4-ylpyrimidin-2-yl]phenyl]-3-methylurea], 17.9 nM; for `O=C(NCCO)Nc1ccc(-c2nc(N3CCOCC3)cc(C3(S(=O)(=O)C4CC4)CCCC3)n2)cc1` [Example 13l, 1-[4-[4-(1-cyclopropylsulfonylcyclopentyl)-6-morpholin-4-ylpyrimidin-2-yl]phenyl]-3-(2-hydroxyethyl)urea], 10.8 nM. Regarding `CC(C)(CO)NC(=O)Nc1ccc(-c2nc(N3CCOCC3)cc(C3(S(=O)(=O)C4CC4)CCCC3)n2)cc1` [Example 13m, 1-[4-[4-(1-cyclopropylsulfonylcyclopentyl)-6-morpholin-4-ylpyrimidin-2-yl]phenyl]-3-(1-hydroxy-2-methylpropan-2-yl)urea], under setting [2], the IC50 came to 53.2 nM. Regarding `CN(C)CCNC(=O)Nc1ccc(-c2nc(N3CCOCC3)cc(C3(S(=O)(=O)C4CC4)CCCC3)n2)cc1` [Example 13n, 1-[4-[4-(1-cyclopropylsulfonylcyclopentyl)-6-morpholin-4-ylpyrimidin-2-yl]phenyl]-3-(2-dimethylaminoethyl)urea], the IC50 under setting [2] turned out to be 997 nM. On to `O=C(NCCCO)Nc1ccc(-c2nc(N3CCOCC3)cc(C3(S(=O)(=O)C4CC4)CCCC3)n2)cc1` [Example 13o, 1-[4-[4-(1-cyclopropylsulfonylcyclopentyl)-6-morpholin-4-ylpyrimidin-2-yl]phenyl]-3-(3-hydroxypropyl)urea], for which the IC50 under setting [2] amounted to 28.7 nM. Still for that read-out and setting: the figure for `O=C(Nc1ccc(-c2nc(N3CCOCC3)cc(C3(S(=O)(=O)C4CC4)CCC3)n2)cc1)NC1CC1` [Example 13p, 3-cyclopropyl-1-[4-[4-(1-cyclopropylsulfonylcyclobutyl)-6-morpholin-4-ylpyrimidin-2-yl]phenyl]urea] is 2.02 nM. Turning to `CNC(=O)Nc1ccc(-c2nc(N3CCOCC3)cc(C3(S(=O)(=O)C4CC4)CCC3)n2)cc1` [Example 13q, 1-[4-[4-(1-cyclopropylsulfonylcyclobutyl)-6-morpholin-4-ylpyrimidin-2-yl]phenyl]-3-methylurea], under setting [2], the IC50 came to 1.92 nM.

`O=C(NCCO)Nc1ccc(-c2nc(N3CCOCC3)cc(C3(S(=O)(=O)C4CC4)CCC3)n2)cc1` [Example 13r, 1-[4-[4-(1-cyclopropylsulfonylcyclobutyl)-6-morpholin-4-ylpyrimidin-2-yl]phenyl]-3-(2-hydroxyethyl)urea]: the IC50 under setting [2] was 1.98 nM.

As for `CC(C)(CO)NC(=O)Nc1ccc(-c2nc(N3CCOCC3)cc(C3(S(=O)(=O)C4CC4)CCC3)n2)cc1` [Example 13s, 1-[4-[4-(1-cyclopropylsulfonylcyclobutyl)-6-morpholin-4-ylpyrimidin-2-yl]phenyl]-3-(1-hydroxy-2-methylpropan-2-yl)urea], the IC50 under setting [2] is 8.46 nM. Regarding `CN(C)CCNC(=O)Nc1ccc(-c2nc(N3CCOCC3)cc(C3(S(=O)(=O)C4CC4)CCC3)n2)cc1` [Example 13t, 1-[4-[4-(1-cyclopropylsulfonylcyclobutyl)-6-morpholin-4-ylpyrimidin-2-yl]phenyl]-3-(2-dimethylaminoethyl)urea], the IC50 under setting [2] came out at 172 nM. The same measure, in the same setting: for `O=C(NCCCO)Nc1ccc(-c2nc(N3CCOCC3)cc(C3(S(=O)(=O)C4CC4)CCC3)n2)cc1` [Example 13u, 1-[4-[4-(1-cyclopropylsulfonylcyclobutyl)-6-morpholin-4-ylpyrimidin-2-yl]phenyl]-3-(3-hydroxypropyl)urea] the value was 4.77 nM.
